According to ChEMBL document CHEMBL1641405, “Click chemistry inspired one-pot synthesis of 1,4-disubstituted 1,2,3-triazoles and their Src kinase inhibitory activity” (Bioorg Med Chem Lett, 2011):
pIC50: −log10 of the molar value.

Assays:
[1] = biological target: T1, Proto-oncogene tyrosine-protein kinase Src (Homo sapiens, UniProt P12931); assay: Inhibition of c-Src at 75 uM after 60 mins
[2] = biological target: T1, Proto-oncogene tyrosine-protein kinase Src; assay: Inhibition of c-Src after 60 mins
[3] = biological target: Tyrosine-protein kinase Lck (Homo sapiens, UniProt P06239); assay: Inhibition of human activated Lck
[4] = biological target: Epidermal growth factor receptor (Homo sapiens, UniProt P00533); assay: Inhibition of human EGFR
[5] = biological target: Tyrosine-protein kinase CSK (Homo sapiens) (UniProt P41240); assay: Inhibition of human Cck

T1 sequence (P12931 2-536 limits assumed): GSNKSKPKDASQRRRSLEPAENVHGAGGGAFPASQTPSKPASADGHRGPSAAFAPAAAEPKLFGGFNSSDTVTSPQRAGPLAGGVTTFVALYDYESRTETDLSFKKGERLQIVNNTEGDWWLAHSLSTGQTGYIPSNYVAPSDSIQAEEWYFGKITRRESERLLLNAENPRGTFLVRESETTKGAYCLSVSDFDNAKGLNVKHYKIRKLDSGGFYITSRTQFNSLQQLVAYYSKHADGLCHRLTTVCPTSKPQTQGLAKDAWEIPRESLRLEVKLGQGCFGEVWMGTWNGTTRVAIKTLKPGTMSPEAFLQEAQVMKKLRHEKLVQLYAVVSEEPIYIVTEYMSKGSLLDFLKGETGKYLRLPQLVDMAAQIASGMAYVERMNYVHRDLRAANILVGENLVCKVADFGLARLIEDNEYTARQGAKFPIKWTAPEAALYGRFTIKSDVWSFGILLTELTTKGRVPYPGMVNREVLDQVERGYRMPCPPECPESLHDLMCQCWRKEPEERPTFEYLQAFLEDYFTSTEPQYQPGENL
Tyrosine-protein kinase Lck, sequence (P06239 whole entry): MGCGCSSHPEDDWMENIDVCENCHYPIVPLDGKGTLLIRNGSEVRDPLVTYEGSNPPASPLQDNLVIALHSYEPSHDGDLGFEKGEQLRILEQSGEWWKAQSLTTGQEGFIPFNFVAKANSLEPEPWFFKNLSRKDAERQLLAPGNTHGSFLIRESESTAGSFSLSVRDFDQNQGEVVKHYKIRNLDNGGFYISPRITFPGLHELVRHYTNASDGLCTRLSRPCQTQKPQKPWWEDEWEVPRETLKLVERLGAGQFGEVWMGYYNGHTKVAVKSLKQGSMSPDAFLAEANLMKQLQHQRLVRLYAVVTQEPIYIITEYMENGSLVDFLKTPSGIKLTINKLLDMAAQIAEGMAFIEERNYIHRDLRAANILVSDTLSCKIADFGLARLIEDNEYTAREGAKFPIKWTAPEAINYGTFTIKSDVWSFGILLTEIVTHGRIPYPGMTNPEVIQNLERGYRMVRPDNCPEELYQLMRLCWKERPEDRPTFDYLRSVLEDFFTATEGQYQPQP
Epidermal growth factor receptor, sequence (P00533 whole entry): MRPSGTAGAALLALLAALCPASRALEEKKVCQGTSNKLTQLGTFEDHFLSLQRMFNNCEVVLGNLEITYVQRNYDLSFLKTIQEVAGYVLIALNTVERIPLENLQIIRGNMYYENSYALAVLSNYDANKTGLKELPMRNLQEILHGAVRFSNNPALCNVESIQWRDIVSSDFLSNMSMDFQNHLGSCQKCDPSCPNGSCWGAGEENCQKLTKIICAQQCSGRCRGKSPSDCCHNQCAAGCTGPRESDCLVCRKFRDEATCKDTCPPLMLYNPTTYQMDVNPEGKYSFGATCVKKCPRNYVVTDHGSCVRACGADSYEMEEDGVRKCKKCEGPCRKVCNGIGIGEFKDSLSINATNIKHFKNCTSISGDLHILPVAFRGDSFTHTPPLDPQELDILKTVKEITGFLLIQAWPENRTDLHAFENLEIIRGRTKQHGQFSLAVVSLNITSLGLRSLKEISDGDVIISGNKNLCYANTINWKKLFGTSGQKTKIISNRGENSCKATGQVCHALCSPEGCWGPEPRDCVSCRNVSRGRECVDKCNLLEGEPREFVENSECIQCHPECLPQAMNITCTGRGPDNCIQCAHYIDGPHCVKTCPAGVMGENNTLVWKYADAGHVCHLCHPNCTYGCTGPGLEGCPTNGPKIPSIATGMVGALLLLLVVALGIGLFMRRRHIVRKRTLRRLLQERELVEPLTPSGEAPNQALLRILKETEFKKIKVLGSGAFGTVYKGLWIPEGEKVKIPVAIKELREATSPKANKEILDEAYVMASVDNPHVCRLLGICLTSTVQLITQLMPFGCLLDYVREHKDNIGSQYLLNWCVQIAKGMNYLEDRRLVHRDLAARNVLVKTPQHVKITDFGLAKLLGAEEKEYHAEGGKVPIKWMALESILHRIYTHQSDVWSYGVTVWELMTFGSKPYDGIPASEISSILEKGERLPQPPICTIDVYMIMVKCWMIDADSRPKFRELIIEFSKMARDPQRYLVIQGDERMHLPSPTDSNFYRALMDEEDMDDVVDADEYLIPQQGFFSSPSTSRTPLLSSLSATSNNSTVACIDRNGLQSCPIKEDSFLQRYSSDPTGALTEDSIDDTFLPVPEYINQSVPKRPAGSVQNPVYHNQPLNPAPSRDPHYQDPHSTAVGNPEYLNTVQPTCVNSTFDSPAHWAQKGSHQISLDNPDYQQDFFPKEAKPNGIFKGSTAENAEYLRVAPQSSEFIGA

Row | inhibition [1] [%] | pIC50 [2] | Structure (SMILES) | further results
1 | < 10 | – | O=C(Cn1cc(-c2ccc(F)cc2)nn1)c1ccc(Br)cc1 | –
2 | – | < 3.82 | CC(=O)Cn1cc(-c2ccc(C)cc2)nn1 | –
3 | < 10 | – | CCCCc1cn(CC(=O)c2ccc(Br)cc2)nn1 | –
4 | – | 4.38 | Cc1ccc(-c2cn(CC(=O)c3ccccc3)nn2)cc1 | –
5 | – | 4.09 | Cc1cc(-c2cn(CC(=O)c3ccccc3)nn2)ccc1F | –
6 | – | 3.96 | Cc1ccc(-c2cn(CC(=O)c3ccc(Cl)cc3)nn2)cc1 | –
7 | < 10 | – | O=C1CCCC1n1cc(-c2ccsc2)nn1 (configuration not stated) | –
8 | – | < 3.82 | Cc1ccc(-c2cn(CC(=O)c3cc4ccccc4oc3=O)nn2)cc1 | –
9 | < 10 | – | Cc1ccc(-c2cn(CC(=O)c3ccc(Br)cc3)nn2)cc1 | –
10 | – | 4.47 | Cc1ccc(-c2cn(C3CCCCC3=O)nn2)cc1 (configuration not stated) | pIC50 [3]: < 4.00; pIC50 [4]: < 4.00; pIC50 [5]: < 4.00
11 | – | < 3.82 | CCNC(=O)Cn1cc(-c2ccccc2)nn1 | –
12 | – | 4.30 | Cc1ccc(C(=O)Cn2cc(-c3ccc(C)cc3)nn2)cc1 | –

Second part, the compound before the results:

Row | Structure (SMILES) | inhibition [1] [%] | pIC50 [2] | further results
13 | O=C(Cn1cc(-c2ccccc2)nn1)c1ccc(Cl)cc1 | – | 3.86 | –
14 | O=C1CCCC1n1cc(-c2ccccc2)nn1 (configuration not stated) | – | 3.98 | –
15 | COc1ccc(C(=O)Cn2cc(-c3cccc(C)c3)nn2)cc1 | – | 4.14 | –
16 | CCCCc1cn(CC(=O)c2ccccc2)nn1 | < 10 | – | –
17 | Cc1ccc(-c2cn(C3CCCCCC3=O)nn2)cc1 (configuration not stated) | – | 4.18 | –
18 | COc1ccc(C(=O)Cn2cc(-c3ccccc3)nn2)cc1 | – | < 4.00 | –
19 | O=C(Cn1cc(CCCCCl)nn1)c1ccc(Br)cc1 | – | < 4.00 | –
20 | COc1ccc(-c2cn(CC(=O)c3ccc(Cl)cc3)nn2)cc1 | < 10 | – | –
21 | O=C(Cn1cc(-c2ccccc2)nn1)c1cccs1 | – | 4.49 | –
22 | COc1ccc(-c2cn(C3CCCC3=O)nn2)cc1 (configuration not stated) | < 10 | – | –
23 | O=C(Cn1cc(-c2ccccn2)nn1)c1ccccc1 | < 10 | – | –
24 | O=C(Cn1cc(-c2ccc(F)cc2)nn1)c1ccc(Cl)cc1 | < 10 | – | –
25 | COC(=O)Cn1cc(-c2ccccc2)nn1 | – | < 4.00 | –
26 | O=C1CCCCC1n1cc(-c2ccccc2)nn1 (configuration not stated) | – | 4.36 | –
27 | O=C1CCCC1n1cc(-c2ccc(F)cc2)nn1 (configuration not stated) | < 10 | – | –
28 | CC(=O)Cn1cc(-c2ccccc2)nn1 | – | < 3.82 | –
29 | Cc1ccc(-c2cn(C3CCCC3=O)nn2)cc1 (configuration not stated) | – | 4.21 | –
30 | O=C1CCCC(n2cc(-c3ccccc3)nn2)C1 (configuration not stated) | < 10 | – | –
31 | O=C(Cn1cc(-c2ccsc2)nn1)c1ccc(Cl)cc1 | – | < 3.82 | –
32 | O=C1CCCCC1n1cc(-c2ccsc2)nn1 (configuration not stated) | < 10 | – | –
33 | O=C1CCC(n2cc(-c3ccccc3)nn2)C1 (configuration not stated) | < 10 | – | –
34 | O=C1CCCCC1n1cc(-c2ccc(F)cc2)nn1 (configuration not stated) | < 10 | – | –
35 | O=C(/C=C/c1ccccc1)Cn1cc(-c2ccccc2)nn1 | – | < 4.00 | –
36 | O=C(Cn1cc(-c2ccccc2)nn1)c1ccccc1 | – | < 4.00 | –
37 | COc1ccc(-c2cn(C3CCCCC3=O)nn2)cc1 (configuration not stated) | < 10 | – | –
38 | Cc1ccc(C(=O)Cn2cc(-c3ccc(F)c(C)c3)nn2)cc1 | – | 4.08 | –
39 | O=C(Cn1cc(-c2ccccc2)nn1)c1ccc(-c2cc3ccccc3oc2=O)cc1 | – | 4.05 | –
